“And” between values parts separate entries of the source, which are not always exact repeats. Identical values can stand only once. “Also recorded” adds a separate entry of the source.
Legend:
p75^NTR TMD = target: T1, p75^NTR TMD (Homo sapiens, UniProt P08138); experiment: AraTM assay, wild-type p75NTR TMD (GFP/OD630); format: cell-based; conditions: structure-activity comparison
T1 sequence (P08138 250-275 limits assumed): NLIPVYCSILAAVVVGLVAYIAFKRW

[1] = tested on: A875-shp75 melanoma xenograft; experiment: Melanoma lung invasion assay, A875-shp75, delayed treatment 3 weeks after cell injection; format: in vivo, SCID mice; conditions: group average
Experimental: (§1) Finally, we investigated whether delayed administration of Np75-4A22 was able to affect engraftment and growth of metastatic tumors in the lung. To this end, drug treatment (orally at 200 mg/kg) was initiated 3 weeks after intravenous injection of A875-NT or A875-shp75 cells in female SCID mice and continued for additionally 4 weekly cycles (5 days on/2 days off) as above (Fig. 8E). Metastatic spread to the lungs was monitored weekly by bioluminescent imaging of luciferase-expressing melanoma cells. […] We conclude that Np75-4A22 can be efficacious at reducing the spread and seeding of melanoma cells in the lung when administered either before or after cell implantation.
(§2) Eight-week-old female SCID mice (Charles River Laboratories, Shrewsbury, MA, USA) were housed in groups of three to five and maintained on a 12-h light/dark schedule with a temperature of 22 °C ± 1 °C and a relative humidity of 50% ± 5%. Food and water were available ad libitum. This research study was reviewed and approved by the University of Calgary Animal Care Committee (AC22-0054) and McGill University (AUP-JGH-8269) and adheres to established ethical principles and guidelines. A875-GFPLuc (A875-NT) or A875-GFPLuc shp75 (A875-shp75) cells harvested using Puck’s EDTA were resuspended in PBS and injected intravenously into SCID mice (5 × 10^5 cells/200 μl per mouse). Np75-4A22 was dissolved in 0.5% sodium carboxymethyl cellulose (NaCMC) in reverse osmosis H2O and administered by oral gavage at 200 mg/kg/day starting one day prior to intravenous (tail vein) injection of tumor cells and continued for 3 1-week cycles (cycle: 5 days on drug, 2 days off drug). Tumor spread to the lung was monitored weekly by luciferase activity using the Xenogen IVIS-200 Optical in vivo luciferase imaging system as described previously (Lun et al, [2016]) and by immunohistochemistry (IHC) at designated time points. IHC was performed after formalin fixation, paraffin embedding and sectioning of the lungs, using a human-specific mouse polyclonal nucleolin antibody (1:500 dilution) and detected using Dako liquid DAB+ Substrate Chromogen System (Dako: k3468, California, USA) followed by a hematoxylin counterstain (Sigma, Oakville, ON, Canada). Sections were mounted and imaged on an Olympus phase contrast microscope (Olympus Life Science, Tokyo, Japan). For immunofluorescence, sections were stained with anti-human nucleolin and anti-human p75NTR antibodies (1:1000 dilution), subsequently detected with 1:200 dilutions of Alexa Fluor™ 488 Goat anti-Mouse IgG (H + L) Highly Cross-Adsorbed Secondary Antibody and Alexa Fluor™ 568 Goat anti-Rabbit IgG (H + L) Cross-Adsorbed Secondary Antibody. Sections were further stained with DAPI to detect all nuclei. Between each treatment, TBS Automation Wash Buffer (Biocare Medical TWB945M) was employed. Images were taken with LSM800 confocal microscope and ZEN system.

[2] = tested on: A875-NT melanoma xenograft; experiment: Melanoma lung invasion assay, A875-NT, delayed treatment 3 weeks after cell injection; format: in vivo, SCID mice; conditions: A875-NT, group average
Experimental: as §1, §2

A875 NT cells [3] = experiment: Boyden chamber chemotaxis/invasion assay, A875 NT; format: cell-based, human; conditions: 5μM Q_VD_pOH; for Fold change (invading cells), Mean: N=3
Experimental: For Boyden chamber assay, Corning® BioCoat™ Matrigel® Invasion Chambers 8.0 µm PET Membrane were used (cat. no. 354480). A875 NT or WM115 cells were serum-starved for 16 h and then seeded at 60,000 cells per well in serum-free media under different conditions, including DMSO (vehicle) or small molecules Div17E5 or Np75-4A22 at different concentrations to the top chamber of the Matrigel-coated trans-well chamber. The pan-caspase inhibitor Q_VD_poH (at 5 µM) was also introduced in the top chamber in some experiments. Two different chemoattractants, NGF (at 50 ng/ml or 100 ng/ml as indicated) or 10% FBS were added to the bottom chamber. Assays were carried out for 8 h after which filters were fixed in 4% PFA and stained with DAPI. Cells that had remained on the top of the filter were gently scrapped away with a cotton tip. The filter lower side was imaged on an inverted fluorescence microscope and counted using ImageJ software (NIH).

A875 NT cells [4] = experiment: Wound healing cell motility assay, A875 NT; format: cell-based, human; conditions: for Wound area, Mean / Wound area, n1-n3: 5μM Q_VD_poH; for Wound area, Mean: N=3
Experimental: (§3) For wound healing assay, cells were grown until confluency and subjected to a wound across the cell mono-layer. Cells were then incubated with serum-free media either with DMSO or a small molecule (with or without 5 µM Q_VD_poH) and imaged at specific time-points. Cell migration is reflected as fold change in wound area over time.

A875 shp75 cells = experiment: Wound healing cell motility assay, A875 shp75; format: cell-based, human; conditions: 5μM Q_VD_poH; for Wound area, Mean: N=3
Experimental: as §3

A875 melanoma cells (NT) = experiment: Cleaved PARP western blot (apoptosis), A875 NT; format: cell-based, human; conditions: Q-VD-pOH 5 µM; Div17E5 10 µM
Experimental: One of the main biological readouts of p75^NTR activity in response to neurotrophins is the induction of caspase-mediated apoptotic cell death (Underwood and Coulson, [2008]; Friedman, [2010]; Ibáñez and Simi, [2012]).
COS7, A875 and WM115 cell lines were cultured under standard conditions in DMEM supplemented with 10% fetal calf serum, 100 units/ml penicillin, […] streptomycin, and 2.5 mM glutamine. All cells were authenticated and tested for mycoplasma contamination. A875-NT (control) and A875 shp75 (knockdown) cell lines were described previously (Goh et al, [2018]).

COc1ccc(-c2cncc(Nc3ccc(Br)c(Cl)c3)n2)cc1 [Np75-3B03]
activity in the AraTM assay (p75^NTR TMD): best compound in this series; also recorded: less potent than MS_18

Cc1cccc(-c2cncc(Nc3ccc(Br)c(Cl)c3Cl)n2)c1C [4A-22]
Average Photons/second/week, wk2 ([1]; wk2): 9.88E+04 Photons/second | Average Photons/second/week, wk3 ([1]; wk3): 1.46E+05 Photons/second | Average Photons/second/week, wk4 ([1]; wk4): 1.10E+05 Photons/second | Average Photons/second/week, wk5 ([1]; wk5): 2.77E+05 Photons/second | Average Photons/second/week, wk6 ([1]; wk6): 4.60E+05 Photons/second | Average Photons/second/week, wk7 ([1]; wk7): 1.10E+06 Photons/second | Average Photons/second/week, wk2 ([2]; wk2): 77712.5 Photons/second | Average Photons/second/week, wk3 ([2]; wk3): 189000 Photons/second | Average Photons/second/week, wk4 ([2]; wk4): 170125 Photons/second | Average Photons/second/week, wk5 ([2]; wk5): 304375 Photons/second | Average Photons/second/week, wk6 ([2]; wk6): 845350 Photons/second | Average Photons/second/week, wk7 ([2]; wk7): 3166750 Photons/second

COc1ccccc1-c1cncc(Nc2ccc([N+](=O)[O-])cc2)n1 [Np75-3A01]
activity in the AraTM assay (p75^NTR TMD): MS_18 more potent than Np75-3A01, -3A02

COc1cccc(-c2cncc(Nc3ccc([N+](=O)[O-])cc3)n2)c1 [Np75-3A02]
activity in the AraTM assay (p75^NTR TMD): MS_18 more potent than Np75-3A01, -3A02

O=C(Nc1ccc([N+](=O)[O-])cc1)c1cncc(-c2cccc(OC3CCCC3)c2)n1 [Np75-3A51]
activity in the AraTM assay (p75^NTR TMD): activity was lost

Cc1ccccc1-c1cncc(Nc2ccc([N+](=O)[O-])cc2)n1 [Np75-3A19]
activity in the AraTM assay (p75^NTR TMD): Np75-3A21 better than -3A19 and -3A20

Cc1cccc(-c2cncc(Nc3ccc([N+](=O)[O-])cc3)n2)c1 [Np75-3A20]
activity in the AraTM assay (p75^NTR TMD): Np75-3A21 better than -3A19 and -3A20

CC(C)[C@H](NC(=O)c1ccc2ccccc2n1)C(=O)N[C@@H](CC(=O)O)C(=O)COc1c(F)cccc1F [Q-VD-pOH, reference compound]
Fold change (invading cells), n1-n3 (A875 NT cells [3]; With NGF): 2.27 Fold and 1.89 Fold and 2.17 Fold | Fold change (invading cells), Mean (A875 NT cells [3]; With NGF): 2.11 Fold | Fold change (invading cells), n1-n3 (A875 NT cells [3]; without NGF): 1.22 Fold and 1.02 Fold and 1.42 Fold | Fold change (invading cells), Mean (A875 NT cells [3]; without NGF): 1.22 Fold | rescue of Div17E5 effect on cell motility by caspase inhibitor (A875 NT cells [4]): could not be rescued | Wound area, Mean (A875 NT cells [4]; 0 hours): 1.000 Fold | Wound area, n1-n3 (A875 NT cells [4]; 3 hours): 0.912 Fold and 1.045 Fold and 0.955 Fold | Wound area, Mean (A875 NT cells [4]; 3 hours): 0.971 Fold | Wound area, n1-n3 (A875 NT cells [4]; 6 hours): 0.873 Fold and 1.010 Fold and 0.935 Fold | Wound area, Mean (A875 NT cells [4]; 6 hours): 0.939 Fold | Wound area, n1-n3 (A875 NT cells [4]; 9 hours): 0.814 Fold and 0.952 Fold and 0.859 Fold | Wound area, Mean (A875 NT cells [4]; 9 hours): 0.875 Fold | Wound area, n1-n3 (A875 NT cells [4]; 12 hours): 0.792 Fold and 0.920 Fold and 0.820 Fold | Wound area, Mean (A875 NT cells [4]; 12 hours): 0.844 Fold | Wound area, n1-n3 (A875 NT cells [4]; 15 hours): 0.758 Fold and 0.880 Fold and 0.797 Fold | Wound area, Mean (A875 NT cells [4]; 15 hours): 0.811 Fold | Wound area, n1-n3 (A875 NT cells [4]; 18 hours): 0.732 Fold and 0.836 Fold and 0.772 Fold | Wound area, Mean (A875 NT cells [4]; 18 hours): 0.780 Fold | Wound area, n1-n3 (A875 NT cells [4]; 21 hours): 0.724 Fold and 0.832 Fold and 0.756 Fold | Wound area, Mean (A875 NT cells [4]; 21 hours): 0.771 Fold | Wound area, n1-n3 (A875 NT cells [4]; 24 hours): 0.707 Fold and 0.800 Fold and 0.730 Fold | Wound area, Mean (A875 NT cells [4]; 24 hours): 0.746 Fold | Wound area, n1-n3 (A875 shp75 cells; 0 hours): 0.942 Fold and 1.051 Fold and 1.006 Fold | Wound area, Mean (A875 shp75 cells; 0 hours): 1.000 Fold | Wound area, n1-n3 (A875 shp75 cells; 3 hours): 0.980 Fold and 1.009 Fold and 0.979 Fold | Wound area, Mean (A875 shp75 cells; 3 hours): 0.989 Fold | Wound area, n1-n3 (A875 shp75 cells; 6 hours): 0.990 Fold and 1.014 Fold and 0.952 Fold | Wound area, Mean (A875 shp75 cells; 6 hours): 0.985 Fold | Wound area, n1-n3 (A875 shp75 cells; 9 hours): 0.935 Fold and 0.937 Fold and 0.886 Fold | Wound area, Mean (A875 shp75 cells; 9 hours): 0.919 Fold | Wound area, n1-n3 (A875 shp75 cells; 12 hours): 0.939 Fold and 0.913 Fold and 0.875 Fold | Wound area, Mean (A875 shp75 cells; 12 hours): 0.909 Fold | Wound area, n1-n3 (A875 shp75 cells; 15 hours): 0.891 Fold and 0.870 Fold and 0.844 Fold | Wound area, Mean (A875 shp75 cells; 15 hours): 0.869 Fold | Wound area, n1-n3 (A875 shp75 cells; 18 hours): 0.856 Fold and 0.835 Fold and 0.800 Fold | Wound area, Mean (A875 shp75 cells; 18 hours): 0.830 Fold | Wound area, n1-n3 (A875 shp75 cells; 21 hours): 0.849 Fold and 0.778 Fold and 0.767 Fold | Wound area, Mean (A875 shp75 cells; 21 hours): 0.798 Fold | Wound area, n1-n3 (A875 shp75 cells; 24 hours): 0.815 Fold and 0.772 Fold and 0.761 Fold | Wound area, Mean (A875 shp75 cells; 24 hours): 0.783 Fold | block of Div17E5-induced apoptosis (cleaved PARP) (A875 melanoma cells (NT)): could be blocked

Cc1ccc(-c2cncc(Nc3ccc([N+](=O)[O-])cc3)n2)cc1 [Np75-3A21]
activity in the AraTM assay (p75^NTR TMD): best compounds; also recorded: Np75-3A21 better than -3A19 and -3A20; also recorded: best hit from this series

O=C(Nc1ccc([N+](=O)[O-])cc1)c1cncc(-c2ccc3ccccc3c2)n1 [Np75-3A49]
activity in the AraTM assay (p75^NTR TMD): activity was lost

From PMC12514245, “Impaired migration and lung invasion of human melanoma by a novel small molecule targeting the transmembrane domain of death receptor p75^NTR” (EMBO Molecular Medicine, 2025)
